Patent US9278990B2, “Substituted nucleotide analogs” (priority 2010, dated 2016)

biological target: T1, NS5B570-Con1 (Delta-21) (Hepatitis C virus genotype 1b, UniProt Q9WMX2); assay: NS5B inhibition assay; type: biochemical, HCV; conditions: IC50 value, incorporation of tritiated NMP into acid-insoluble RNA, 2 hours at 37° C.
T1 construct: NS5B570-Con1 (Delta-21)
Experimental: The enzyme activity of NS5B570-Con1 (Delta-21) was measured as an incorporation of tritiated NMP into acid-insoluble RNA products. The complementary IRES (cIRES) RNA sequence was used as a template, corresponding to 377 nucleotides from the 3′-end of HCV (−) strand RNA of the Con-1 strain, with a base content of 21% Ade, 23% Ura, 28% Cyt, and 28% Gua. The cIRES RNA was transcribed in vitro using a T7 transcription kit (Ambion, Inc.) and purified using the Qiagen RNeasy maxi kit. HCV polymerase reactions contained 50 nM NS5B570-Con1, 50 nM cIRES RNA, about 0.5 μCi tritiated NTP, 1 μM of competing cold NTP, 20 mM NaCl, 40 mM Tris-HCl (pH 8.0), 4 mM dithiothreitol, and 4 mM MgCl2. Standard reactions were incubated for 2 hours at 37° C., in the presence of increasing concentration of inhibitor. At the end of the reaction, RNA was precipitated with 10% TCA, and acid-insoluble RNA products were filtered on a size exclusion 96-well plate. After washing of the plate, scintillation liquid was added and radio labeled RNA products were detected according to standard procedures with a Trilux Topcount scintillation counter.

Compound | IC50 [µM]
C[C@@]1(F)[C@H](O)[C@@H](COP(O)(=S)OP(=O)(O)OP(=O)(O)O)O[C@H]1n1cnc2c(=O)[nH]c(N)nc21 (single isomer, unassigned) [Compound 5e] | < 1
C[C@@]1(F)[C@H](O)[C@@H](COP(O)(=S)OP(=O)(O)OP(=O)(O)O)O[C@H]1n1ccc(=O)[nH]c1=O (single isomer, unassigned) [Compound 5d] | 10 to 100
C[C@@]1(O)[C@H](O)[C@@H](COP(O)(=S)OP(=O)(O)OP(=O)(O)O)O[C@H]1n1cnc2c(=O)[nH]c(N)nc21 (single isomer, unassigned) [Compound 5g] | < 1
C[C@@]1(O)[C@H](O)[C@@H](COP(O)(=S)OP(=O)(O)OP(=O)(O)O)O[C@H]1n1ccc(=O)[nH]c1=O (single isomer, unassigned) [Compound 5b] | < 1
